Where “and” joins values, the source holds several entries; their conditions need not be identical. Identical values can stand only once.
Assays:
FGR (human) = FGR (human) (UniProt P09769); experiment: KINOMEscan competition binding; conditions: compound 1.0 µM
STK36 (human) = STK36 (human) (UniProt Q9NRP7); experiment: KINOMEscan competition binding; conditions: compound 1.0 µM
STK35 (human) = STK35 (human) (UniProt Q8TDR2); experiment: KINOMEscan competition binding; conditions: compound 1.0 µM
FLT3 (human) = FLT3 (human) (UniProt P36888); experiment: KINOMEscan competition binding; conditions: compound 1.0 µM
[1] = tested on: FLT3 (human), P36888 [R834Q]; experiment: KINOMEscan competition binding; conditions: compound 1.0 µM
DSTYK (human) = DSTYK (human) (UniProt Q6XUX3); experiment: KINOMEscan competition binding; conditions: compound 1.0 µM
MAP2K2 (human) = MAP2K2 (human) (UniProt P36507); experiment: KINOMEscan competition binding; conditions: compound 1.0 µM
BMP2K (human) = BMP2K (human) (UniProt Q9NSY1); experiment: KINOMEscan competition binding; conditions: compound 1.0 µM
CAMK4 (human) = CAMK4 (human) (UniProt Q16566); experiment: KINOMEscan competition binding; conditions: compound 1.0 µM
Sequence of CAMK4 (human) (Q16566 whole entry, looked up): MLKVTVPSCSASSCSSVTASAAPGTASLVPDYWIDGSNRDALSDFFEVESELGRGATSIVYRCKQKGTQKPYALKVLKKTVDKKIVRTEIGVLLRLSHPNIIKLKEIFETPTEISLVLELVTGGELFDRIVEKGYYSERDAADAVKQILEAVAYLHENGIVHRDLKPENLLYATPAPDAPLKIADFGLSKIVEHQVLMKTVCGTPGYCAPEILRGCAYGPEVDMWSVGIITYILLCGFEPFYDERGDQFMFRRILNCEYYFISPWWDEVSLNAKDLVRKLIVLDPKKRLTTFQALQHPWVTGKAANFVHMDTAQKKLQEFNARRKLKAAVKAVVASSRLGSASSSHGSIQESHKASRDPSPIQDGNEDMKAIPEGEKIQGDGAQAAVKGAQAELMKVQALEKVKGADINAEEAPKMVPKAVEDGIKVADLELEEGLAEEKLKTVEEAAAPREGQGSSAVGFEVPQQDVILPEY

ADCK4 (human) = ADCK4 (human) (UniProt Q96D53); experiment: KINOMEscan competition binding; conditions: compound 1.0 µM
PRKAA2 (human) = PRKAA2 (human) (UniProt P54646); experiment: KINOMEscan competition binding; conditions: compound 1.0 µM
MINK1 (human) = MINK1 (human) (UniProt Q8N4C8); experiment: KINOMEscan competition binding; conditions: compound 1.0 µM
DAPK2 (human) = DAPK2 (human) (UniProt Q9UIK4); experiment: KINOMEscan competition binding; conditions: compound 1.0 µM
CAMK1D (human) = CAMK1D (human) (UniProt Q8IU85); experiment: KINOMEscan competition binding; conditions: compound 1.0 µM
TAOK1 (human) = TAOK1 (human) (UniProt Q7L7X3); experiment: KINOMEscan competition binding; conditions: compound 1.0 µM
BMPR1A (human) = BMPR1A (human) (UniProt P36894); experiment: KINOMEscan competition binding; conditions: compound 1.0 µM
FRK (human) = FRK (human) (UniProt P42685); experiment: KINOMEscan competition binding; conditions: compound 1.0 µM
MAPKAPK5 (human) = MAPKAPK5 (human) (UniProt Q8IW41); experiment: KINOMEscan competition binding; conditions: compound 1.0 µM
FYN (human) = FYN (human) (UniProt P06241); experiment: KINOMEscan competition binding; conditions: compound 1.0 µM
PAK3 (human) = PAK3 (human) (UniProt O75914); experiment: KINOMEscan competition binding; conditions: compound 1.0 µM
STK16 (human) = STK16 (human) (UniProt O75716); experiment: KINOMEscan competition binding; conditions: compound 1.0 µM
Sequence of STK16 (human) (O75716 whole entry, looked up): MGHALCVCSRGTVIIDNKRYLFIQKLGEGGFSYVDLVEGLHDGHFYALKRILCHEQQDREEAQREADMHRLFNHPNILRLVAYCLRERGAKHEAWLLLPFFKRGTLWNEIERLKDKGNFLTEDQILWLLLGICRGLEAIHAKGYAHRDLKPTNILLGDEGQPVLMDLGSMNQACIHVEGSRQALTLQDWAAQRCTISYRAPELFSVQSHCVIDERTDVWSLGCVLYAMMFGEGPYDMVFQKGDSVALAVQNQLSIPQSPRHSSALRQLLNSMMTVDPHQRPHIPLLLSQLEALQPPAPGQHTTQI

PIK3C2G (human) = PIK3C2G (human) (UniProt O75747); experiment: KINOMEscan competition binding; conditions: compound 1.0 µM
PLK4 (human) = PLK4 (human) (UniProt O00444); experiment: KINOMEscan competition binding; conditions: compound 1.0 µM
STK32B (human) = STK32B (human) (UniProt Q9NY57); experiment: KINOMEscan competition binding; conditions: compound 1.0 µM
STK32A (human) = STK32A (human) (UniProt Q8WU08); experiment: KINOMEscan competition binding; conditions: compound 1.0 µM
MAP3K13 (human) = MAP3K13 (human) (UniProt O43283); experiment: KINOMEscan competition binding; conditions: compound 1.0 µM
NTRK2 (human) = NTRK2 (human) (UniProt Q16620); experiment: KINOMEscan competition binding; conditions: compound 1.0 µM
BRSK1 (human) = BRSK1 (human) (UniProt Q8TDC3); experiment: KINOMEscan competition binding; conditions: compound 1.0 µM
CDC42BPG (human) = CDC42BPG (human) (UniProt Q6DT37); experiment: KINOMEscan competition binding; conditions: compound 1.0 µM
NIM1 (human) = NIM1 (human) (UniProt Q8IY84); experiment: KINOMEscan competition binding; conditions: compound 1.0 µM
ULK1 (human) = ULK1 (human) (UniProt O75385); experiment: KINOMEscan competition binding; conditions: compound 1.0 µM
Sequence of ULK1 (human) (O75385 whole entry, looked up): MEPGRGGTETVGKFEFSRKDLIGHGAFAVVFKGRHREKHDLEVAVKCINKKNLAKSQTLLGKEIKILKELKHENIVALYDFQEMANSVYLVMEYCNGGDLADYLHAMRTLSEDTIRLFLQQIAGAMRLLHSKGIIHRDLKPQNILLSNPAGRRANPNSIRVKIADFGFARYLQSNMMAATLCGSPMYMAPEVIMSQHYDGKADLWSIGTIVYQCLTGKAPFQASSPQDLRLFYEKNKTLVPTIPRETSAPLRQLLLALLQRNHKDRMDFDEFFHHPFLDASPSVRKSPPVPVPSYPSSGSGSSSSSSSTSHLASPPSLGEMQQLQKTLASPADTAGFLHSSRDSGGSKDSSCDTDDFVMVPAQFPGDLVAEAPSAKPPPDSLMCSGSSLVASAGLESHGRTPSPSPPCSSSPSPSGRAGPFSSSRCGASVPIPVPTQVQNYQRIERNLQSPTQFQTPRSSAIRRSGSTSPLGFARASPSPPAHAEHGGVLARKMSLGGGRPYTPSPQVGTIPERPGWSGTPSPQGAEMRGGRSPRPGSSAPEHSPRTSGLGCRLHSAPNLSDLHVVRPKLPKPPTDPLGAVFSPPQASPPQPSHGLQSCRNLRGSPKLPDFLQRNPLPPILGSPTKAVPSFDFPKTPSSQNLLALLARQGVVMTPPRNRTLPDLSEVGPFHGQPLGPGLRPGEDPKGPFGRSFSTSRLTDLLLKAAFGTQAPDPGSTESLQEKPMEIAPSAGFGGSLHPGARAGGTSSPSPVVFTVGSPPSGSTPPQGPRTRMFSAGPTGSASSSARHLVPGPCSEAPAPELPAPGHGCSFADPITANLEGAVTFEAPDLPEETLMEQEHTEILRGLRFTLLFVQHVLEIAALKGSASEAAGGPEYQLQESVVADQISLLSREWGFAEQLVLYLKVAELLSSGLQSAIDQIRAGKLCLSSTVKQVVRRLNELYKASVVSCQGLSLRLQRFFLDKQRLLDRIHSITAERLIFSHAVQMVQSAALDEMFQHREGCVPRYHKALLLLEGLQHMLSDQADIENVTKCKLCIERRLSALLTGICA

TNNI3K (human) = TNNI3K (human) (UniProt Q59H18); experiment: KINOMEscan competition binding; conditions: compound 1.0 µM
MKNK1 (human) = MKNK1 (human) (UniProt Q9BUB5); experiment: KINOMEscan competition binding; conditions: compound 1.0 µM
Sequence of MKNK1 (human) (Q9BUB5 whole entry, looked up): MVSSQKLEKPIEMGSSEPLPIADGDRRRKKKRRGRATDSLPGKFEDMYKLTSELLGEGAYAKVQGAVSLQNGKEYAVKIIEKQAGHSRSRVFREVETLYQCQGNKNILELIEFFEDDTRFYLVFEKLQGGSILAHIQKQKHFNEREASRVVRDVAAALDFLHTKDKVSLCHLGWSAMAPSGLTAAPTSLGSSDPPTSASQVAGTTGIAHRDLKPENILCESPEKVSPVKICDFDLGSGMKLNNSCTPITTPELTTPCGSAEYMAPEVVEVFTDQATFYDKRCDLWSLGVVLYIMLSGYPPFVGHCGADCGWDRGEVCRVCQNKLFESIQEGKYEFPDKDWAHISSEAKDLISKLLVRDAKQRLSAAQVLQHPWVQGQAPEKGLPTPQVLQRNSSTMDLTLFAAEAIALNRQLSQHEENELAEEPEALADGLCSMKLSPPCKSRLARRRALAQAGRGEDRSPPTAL

IGF1R (human) = IGF1R (human) (UniProt P08069); experiment: radiometric filter-binding kinase assay
Sequence of IGF1R (human) (P08069 whole entry, looked up): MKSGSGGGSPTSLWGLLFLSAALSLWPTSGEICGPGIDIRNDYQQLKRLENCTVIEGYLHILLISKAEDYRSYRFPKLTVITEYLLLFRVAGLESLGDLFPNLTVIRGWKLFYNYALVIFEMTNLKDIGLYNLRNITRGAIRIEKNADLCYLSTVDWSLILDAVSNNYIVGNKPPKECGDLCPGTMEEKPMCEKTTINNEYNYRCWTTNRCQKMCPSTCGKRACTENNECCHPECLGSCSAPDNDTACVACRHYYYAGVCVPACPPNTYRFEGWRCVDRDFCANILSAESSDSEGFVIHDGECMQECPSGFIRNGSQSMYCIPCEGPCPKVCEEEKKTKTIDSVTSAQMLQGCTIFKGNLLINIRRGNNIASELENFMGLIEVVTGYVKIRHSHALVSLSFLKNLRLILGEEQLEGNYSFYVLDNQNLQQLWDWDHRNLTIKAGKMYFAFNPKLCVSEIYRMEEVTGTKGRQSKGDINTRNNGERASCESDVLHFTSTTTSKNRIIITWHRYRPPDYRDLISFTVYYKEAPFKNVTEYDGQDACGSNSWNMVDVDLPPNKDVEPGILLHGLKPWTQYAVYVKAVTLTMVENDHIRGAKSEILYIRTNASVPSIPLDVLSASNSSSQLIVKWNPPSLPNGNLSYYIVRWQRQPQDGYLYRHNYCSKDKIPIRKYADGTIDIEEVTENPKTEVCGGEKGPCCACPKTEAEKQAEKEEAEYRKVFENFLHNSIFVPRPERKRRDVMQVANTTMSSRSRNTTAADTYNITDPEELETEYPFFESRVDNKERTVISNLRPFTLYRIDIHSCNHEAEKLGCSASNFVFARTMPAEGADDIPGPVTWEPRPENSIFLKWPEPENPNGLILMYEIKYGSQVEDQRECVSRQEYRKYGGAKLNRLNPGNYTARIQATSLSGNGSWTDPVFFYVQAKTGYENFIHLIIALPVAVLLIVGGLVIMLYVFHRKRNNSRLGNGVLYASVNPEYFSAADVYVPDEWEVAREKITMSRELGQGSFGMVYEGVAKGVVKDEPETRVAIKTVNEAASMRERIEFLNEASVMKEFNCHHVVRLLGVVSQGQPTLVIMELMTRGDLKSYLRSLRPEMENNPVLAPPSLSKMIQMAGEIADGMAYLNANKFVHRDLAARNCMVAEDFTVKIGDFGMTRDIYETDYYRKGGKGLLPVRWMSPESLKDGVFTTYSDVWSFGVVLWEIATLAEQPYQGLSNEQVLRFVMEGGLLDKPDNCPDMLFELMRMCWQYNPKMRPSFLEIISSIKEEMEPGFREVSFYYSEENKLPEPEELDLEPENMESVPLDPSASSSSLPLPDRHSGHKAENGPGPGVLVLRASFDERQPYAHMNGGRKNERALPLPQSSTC

MAP4K3 (human) = MAP4K3 (human) (UniProt Q8IVH8); experiment: radiometric filter-binding kinase assay; conditions: compound 1.0 µM
Sequence of MAP4K3 (human) (Q8IVH8 whole entry, looked up): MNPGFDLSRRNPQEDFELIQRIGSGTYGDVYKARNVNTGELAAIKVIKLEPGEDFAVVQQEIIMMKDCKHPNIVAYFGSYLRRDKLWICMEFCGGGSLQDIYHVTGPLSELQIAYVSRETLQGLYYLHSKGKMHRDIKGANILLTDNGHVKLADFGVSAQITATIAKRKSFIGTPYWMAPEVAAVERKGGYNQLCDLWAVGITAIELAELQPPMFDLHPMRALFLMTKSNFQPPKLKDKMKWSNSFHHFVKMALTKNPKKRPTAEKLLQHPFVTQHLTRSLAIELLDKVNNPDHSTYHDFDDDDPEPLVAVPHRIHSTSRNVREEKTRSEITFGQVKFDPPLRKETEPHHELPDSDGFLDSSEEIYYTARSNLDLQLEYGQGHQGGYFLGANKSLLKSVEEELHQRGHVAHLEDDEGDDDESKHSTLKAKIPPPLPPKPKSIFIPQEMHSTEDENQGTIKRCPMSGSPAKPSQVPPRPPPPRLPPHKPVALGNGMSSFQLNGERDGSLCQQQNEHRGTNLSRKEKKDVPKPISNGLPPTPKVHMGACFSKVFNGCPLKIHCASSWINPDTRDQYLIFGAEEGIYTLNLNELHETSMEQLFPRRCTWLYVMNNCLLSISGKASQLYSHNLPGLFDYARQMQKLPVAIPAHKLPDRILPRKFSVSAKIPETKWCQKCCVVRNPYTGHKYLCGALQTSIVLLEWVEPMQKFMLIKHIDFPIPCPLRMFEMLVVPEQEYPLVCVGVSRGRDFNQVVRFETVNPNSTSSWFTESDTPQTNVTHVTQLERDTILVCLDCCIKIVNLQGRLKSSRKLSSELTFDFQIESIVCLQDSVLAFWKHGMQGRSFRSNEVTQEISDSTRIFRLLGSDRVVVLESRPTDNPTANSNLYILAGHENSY

CLK2 (human) = CLK2 (human) (UniProt P49760); experiment: radiometric filter-binding kinase assay
Sequence of CLK2 (human) (P49760 whole entry, looked up): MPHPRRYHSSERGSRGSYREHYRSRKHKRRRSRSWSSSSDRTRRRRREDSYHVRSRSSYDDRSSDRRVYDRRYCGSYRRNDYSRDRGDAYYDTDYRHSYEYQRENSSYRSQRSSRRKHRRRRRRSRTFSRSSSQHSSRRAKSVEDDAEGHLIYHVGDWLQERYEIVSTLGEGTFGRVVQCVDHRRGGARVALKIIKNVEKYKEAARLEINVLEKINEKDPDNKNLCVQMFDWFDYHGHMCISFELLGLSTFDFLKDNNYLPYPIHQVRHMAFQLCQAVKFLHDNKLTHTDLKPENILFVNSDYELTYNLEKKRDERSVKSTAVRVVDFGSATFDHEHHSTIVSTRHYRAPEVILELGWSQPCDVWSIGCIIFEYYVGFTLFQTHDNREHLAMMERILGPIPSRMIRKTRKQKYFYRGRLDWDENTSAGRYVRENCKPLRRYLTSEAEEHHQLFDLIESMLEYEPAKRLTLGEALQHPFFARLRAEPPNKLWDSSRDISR

HIPK3 (human) = HIPK3 (human) (UniProt Q9H422); experiment: radiometric filter-binding kinase assay; conditions: compound 1.0 µM
FLT1 (human) = FLT1 (human) (UniProt P17948); experiment: radiometric filter-binding kinase assay; conditions: compound 1.0 µM

CNc1nc(Nc2ccc(C(=O)N3CCOCC3)cc2OC)ncc1Cl
kinase still bound, per cent of control (FGR (human)): 100%
kinase still bound, per cent of control (STK36 (human)): 100%
kinase still bound, per cent of control (STK35 (human)): 100%
kinase still bound, per cent of control (FLT3 (human)): 49% and 65%
kinase still bound, per cent of control [1]: 100%
kinase still bound, per cent of control (DSTYK (human)): 100%
kinase still bound, per cent of control (MAP2K2 (human)): 84%
kinase still bound, per cent of control (BMP2K (human)): 79%
kinase still bound, per cent of control (CAMK4 (human)): 100%
kinase still bound, per cent of control (ADCK4 (human)): 100%
kinase still bound, per cent of control (PRKAA2 (human)): 93%
kinase still bound, per cent of control (MINK1 (human)): 100%
kinase still bound, per cent of control (DAPK2 (human)): 66%
kinase still bound, per cent of control (CAMK1D (human)): 100%
kinase still bound, per cent of control (TAOK1 (human)): 99%
kinase still bound, per cent of control (BMPR1A (human)): 100%
kinase still bound, per cent of control (FRK (human)): 63%
kinase still bound, per cent of control (MAPKAPK5 (human)): 100%
kinase still bound, per cent of control (FYN (human)): 56%
kinase still bound, per cent of control (PAK3 (human)): 88%
kinase still bound, per cent of control (STK16 (human)): 100%
kinase still bound, per cent of control (PIK3C2G (human)): 71%
kinase still bound, per cent of control (PLK4 (human)): 62%
kinase still bound, per cent of control (STK32B (human)): 99%
kinase still bound, per cent of control (STK32A (human)): 100%
kinase still bound, per cent of control (MAP3K13 (human)): 100%
kinase still bound, per cent of control (NTRK2 (human)): 93%
kinase still bound, per cent of control (BRSK1 (human)): 96%
kinase still bound, per cent of control (CDC42BPG (human)): 100%
kinase still bound, per cent of control (NIM1 (human)): 100%
kinase still bound, per cent of control (ULK1 (human)): 100%
kinase still bound, per cent of control (TNNI3K (human)): 54%
kinase still bound, per cent of control (MKNK1 (human)): 88%
residual activity (IGF1R (human); compound 1.0 µM): 100%
residual activity (IGF1R (human); compound 10.0 µM): 51%
residual activity (MAP4K3 (human)): 94%
residual activity (CLK2 (human); compound 1.0 µM): 91%
residual activity (CLK2 (human); compound 10.0 µM): 76%
residual activity (HIPK3 (human)): 85%
residual activity (FLT1 (human)): 65%

Source: the kinase profiling compilation of Christmann-Franck et al. (2016)
